The values below come from PubChem BioAssay AID330 (DTP/NCI, 2004).

In the experiment the test system is P388 leukemia ip, CD2F1 mice, survival T/C. Nature of the experiment: NCI In Vivo Anticancer Drug Screen. Data for tumor model P388 Leukemia (intraperitoneal) in CD2F1 (CDF1) mice. The settings on record: endpoint: median survival time, higher = longer survival. The essentials:
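Mice carrying the transplanted tumor received test compound or vehicle. Survival was recorded in each group, and the value is the treated-group measurement divided by that of the vehicle-treated control group.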

Where [1] appears, read: dose: 50.0 mg/kg/injection, schedule: Q01DX005 (ip), vehicle: Klucel (hydroxypropylcellulose) (HPC).
The mark [2] stands for this setting: dose: 100.0 mg/kg/injection, schedule: Q01DX005 (ip), vehicle: Klucel (hydroxypropylcellulose) (HPC).
The mark [3] stands for this setting: dose: 200.0 mg/kg/injection, schedule: Q01DX005 (ip), vehicle: Klucel (hydroxypropylcellulose) (HPC).
[4] abbreviates: dose: 15.0 mg/kg/injection, schedule: Q01DX005 (ip), vehicle: Klucel (hydroxypropylcellulose) (HPC).
Setting [5] is: dose: 30.0 mg/kg/injection, schedule: Q01DX005 (ip), vehicle: Klucel (hydroxypropylcellulose) (HPC).
Setting [6] is: dose: 60.0 mg/kg/injection, schedule: Q01DX005 (ip), vehicle: Klucel (hydroxypropylcellulose) (HPC).
Setting [7] is: dose: 50.0 mg/kg/injection, schedule: Q01DX009 (ip), vehicle: saline with Tween-80.
The mark [8] stands for this setting: dose: 50.0 mg/kg/injection, schedule: Q01DX005 (ip), vehicle: saline with Tween-80.
Setting [9] is: dose: 100.0 mg/kg/injection, schedule: Q01DX005 (ip), vehicle: saline with Tween-80.
Setting [10] is: dose: 200.0 mg/kg/injection, schedule: Q01DX005 (ip), vehicle: saline with Tween-80.
The mark [11] stands for this setting: dose: 100.0 mg/kg/injection, schedule: Q01DX001 (ip), vehicle: Klucel (hydroxypropylcellulose) (HPC).
Where [12] appears, read: dose: 200.0 mg/kg/injection, schedule: Q01DX001 (ip), vehicle: Klucel (hydroxypropylcellulose) (HPC).
[13] abbreviates: dose: 400.0 mg/kg/injection, schedule: Q01DX001 (ip), vehicle: Klucel (hydroxypropylcellulose) (HPC).
[14] abbreviates: dose: 100.0 mg/kg/injection, schedule: Q01DX009 (ip), vehicle: saline with Tween-80.
Setting [15] is: dose: 200.0 mg/kg/injection, schedule: Q01DX009 (ip), vehicle: saline with Tween-80.
Setting [16] is: dose: 100.0 mg/kg/injection, schedule: Q04DX003 (ip), vehicle: saline.
Setting [17] is: dose: 200.0 mg/kg/injection, schedule: Q04DX003 (ip), vehicle: saline.
The mark [18] stands for this setting: dose: 12.5 mg/kg/injection, schedule: Q01DX001 (ip), vehicle: Klucel (hydroxypropylcellulose) (HPC).
The mark [19] stands for this setting: dose: 25.0 mg/kg/injection, schedule: Q01DX001 (ip), vehicle: Klucel (hydroxypropylcellulose) (HPC).

Molecules are shown by their SMILES. Several values for one entry are separate records, joined by “and”; a condition that tells them apart may be missing. Identical values can stand only once. Toxic doses and inconclusive results are not listed.

For `CNC(=O)OCCC(OC(=O)NC)C1CCC2C3CC=C4CC(OC(=O)c5ccccc5)CCC4(C)C3CCC12C` (stereo not drawn), the T/C is 103 % of control under setting [1], 99 % of control under setting [2] and 92 % of control under setting [3].

Regarding `N#C/C(=N\Nc1ccc(F)cc1)C(=O)C1CC1`, the T/C under setting [4] is 100 % of control, the T/C under setting [5] is 106 % of control and the T/C under setting [6] was 98 % of control.

`CC(C#N)CCCC#N` (stereo not drawn): the T/C is, setting by setting: (dose: 12.5 mg/kg/injection, schedule: Q01DX009 (ip), vehicle: saline with Tween-80) 100 % of control; (dose: 25.0 mg/kg/injection, schedule: Q01DX009 (ip), vehicle: saline with Tween-80) 100 % of control; under setting [7], 100 % of control.

Take `CN1CCc2cc3c(cc2C(=O)Cc2ccc4c(c2CO1)OCO4)OCO3`: the T/C reads like this: (dose: 2.75 mg/kg/injection, schedule: Q01DX005 (ip), vehicle: Klucel (hydroxypropylcellulose) (HPC)) 99 % of control; (dose: 5.5 mg/kg/injection, schedule: Q01DX005 (ip), vehicle: Klucel (hydroxypropylcellulose) (HPC)) 94 % of control; (dose: 11.0 mg/kg/injection, schedule: Q01DX005 (ip), vehicle: Klucel (hydroxypropylcellulose) (HPC)) 96 % of control; (dose: 22.0 mg/kg/injection, schedule: Q01DX005 (ip), vehicle: Klucel (hydroxypropylcellulose) (HPC)) 99 % of control.

With `COc1ccc2c(c1N)CC[C@@H]1C2CC[C@]2(C)C(O)CCC12` (stereo partly drawn), the T/C is, setting by setting: under setting [8], 104 % of control; under setting [9], 96 % of control; under setting [10], 91 % of control.

For `CC(C)NCCCNc1c2ccccc2nc2cccc([N+](=O)[O-])c12`, the T/C by setting is: (dose: 0.09 mg/kg/injection, schedule: Q01DX009 (ip), vehicle: saline) 100 % of control and 86 % of control; (dose: 0.19 mg/kg/injection, schedule: Q01DX009 (ip), vehicle: saline) 100 % of control and 97 % of control; (dose: 0.39 mg/kg/injection, schedule: Q01DX009 (ip), vehicle: saline) 100 % of control and 106 % of control and 92 % of control; (dose: 0.79 mg/kg/injection, schedule: Q01DX009 (ip), vehicle: saline) 105 % of control and 123 % of control and 90 % of control; (dose: 1.56 mg/kg/injection, schedule: Q01DX009 (ip), vehicle: saline) 109 % of control.

Regarding `CCOP(O)(=S)OCC.[Sm]`, the T/C by setting is: under setting [11], 88 % of control; under setting [12], 88 % of control; under setting [13], 94 % of control.

As for `C/C(=N\O)c1ccccn1`, the T/C (dose: 25.0 mg/kg/injection, schedule: Q01DX009 (ip), vehicle: water) was 100 % of control; the T/C (dose: 50.0 mg/kg/injection, schedule: Q01DX009 (ip), vehicle: water) is 98 % of control; the T/C (dose: 100.0 mg/kg/injection, schedule: Q01DX009 (ip), vehicle: water) is 98 % of control; the T/C (dose: 200.0 mg/kg/injection, schedule: Q01DX009 (ip), vehicle: water) is 100 % of control; the T/C (dose: 400.0 mg/kg/injection, schedule: Q01DX009 (ip), vehicle: water) is 106 % of control.

Turning to `CSCCc1nc(C)oc1C`, the T/C runs as follows: under setting [7], 94 % of control; under setting [14], 100 % of control; under setting [15], 102 % of control.

With `COc1ccc2c(c1)C13C(=O)OC4(C)OC(C)(CC41)C3C2=O` (stereo not drawn), the T/C was 98 % of control under setting [11], 104 % of control under setting [12] and 95 % of control under setting [13].

In the case of `Cc1c2cc[n+](CCN3CCCCC3)cc2c(C)c2c1[nH]c1ccc(O)cc12`, the T/C (dose: 1.56 mg/kg/injection, schedule: Q04DX003 (ip), vehicle: suspension in saline) was 152 % of control; the T/C (dose: 3.12 mg/kg/injection, schedule: Q04DX003 (ip), vehicle: suspension in saline) was 152 % of control; the T/C (dose: 6.25 mg/kg/injection, schedule: Q04DX003 (ip), vehicle: saline) was 178 % of control and 201 % of control; the T/C (dose: 12.5 mg/kg/injection, schedule: Q04DX003 (ip), vehicle: saline) was 178 % of control; the T/C (dose: 12.5 mg/kg/injection, schedule: Q04DX003 (ip), vehicle: suspension in saline) was 164 % of control; the T/C (dose: 25.0 mg/kg/injection, schedule: Q04DX003 (ip), vehicle: saline) is 190 % of control and 194 % of control. Also, the T/C is, setting by setting: (dose: 25.0 mg/kg/injection, schedule: Q04DX003 (ip), vehicle: suspension in saline) 164 % of control; (dose: 50.0 mg/kg/injection, schedule: Q04DX003 (ip), vehicle: saline) 255 % of control; (dose: 50.0 mg/kg/injection, schedule: Q04DX003 (ip), vehicle: suspension in saline) 152 % of control; under setting [16], 216 % of control; (dose: 100.0 mg/kg/injection, schedule: Q04DX003 (ip), vehicle: suspension in saline) 169 % of control; under setting [17], 104 % of control. For the setting “dose: 200.0 mg/kg/injection, schedule: Q04DX003 (ip), vehicle: suspension in saline”, the T/C was 98 % of control.

On to `CCCC/C=C(\C#N)SCC`, for which the T/C is, setting by setting: (dose: 37.5 mg/kg/injection, schedule: Q01DX009 (ip), vehicle: saline with Tween-80) 100 % of control and 112 % of control and 118 % of control; (dose: 75.0 mg/kg/injection, schedule: Q01DX009 (ip), vehicle: saline with Tween-80) 105 % of control and 114 % of control and 119 % of control; (dose: 150.0 mg/kg/injection, schedule: Q01DX009 (ip), vehicle: saline with Tween-80) 106 % of control and 123 % of control; (dose: 300.0 mg/kg/injection, schedule: Q01DX009 (ip), vehicle: saline with Tween-80) 104 % of control.

On to `Nc1nc2scnc2c(=O)[nH]1`, for which the T/C (dose: 12.5 mg/kg/injection, schedule: Q01DX005 (ip), vehicle: saline with Tween-80) is 88 % of control; the T/C (dose: 25.0 mg/kg/injection, schedule: Q01DX005 (ip), vehicle: saline with Tween-80) is 101 % of control; the T/C under setting [8] is 109 % of control and 97 % of control; the T/C under setting [9] is 102 % of control; the T/C under setting [10] was 112 % of control.

As for `O=C1C(S(=O)(=O)O)=CC(=Nc2ccc(O)cc2)c2ccccc21`, the T/C is 95 % of control under setting [8], 107 % of control under setting [9] and 102 % of control under setting [10].

Regarding `CCn1c(Cl)c(/C=N\Nc2ccccc2[N+](=O)[O-])c2ccccc21`, the T/C is 94 % of control under setting [18] and 88 % of control under setting [19].

As to `CC(NCNc1ccc2ccccc2c1)C(=O)O` (stereo not drawn), the T/C under setting [7] was 104 % of control, the T/C under setting [14] was 106 % of control and the T/C under setting [15] was 98 % of control.

Regarding `Cn1ccc2c3c(ccc21)C(N1CCOCC1)=CS(=O)(=O)O3`, the T/C under setting [1] is 104 % of control, the T/C under setting [2] is 98 % of control and the T/C under setting [3] was 100 % of control.

With `COC(=O)[CH2][Ge]([c]1ccccc1)[c]1ccccc1.COC(=O)[CH2][Ge]([c]1ccccc1)[c]1ccccc1`, the T/C was 97 % of control under setting [4], 89 % of control under setting [5] and 89 % of control under setting [6].

As for `c1cc2ccc3ccc4ccc5ccc6ccc1c1c2c3c4c5c61`, the T/C by setting is: under setting [18], 100 % of control; under setting [19], 104 % of control; (dose: 50.0 mg/kg/injection, schedule: Q01DX001 (ip), vehicle: Klucel (hydroxypropylcellulose) (HPC)) 96 % of control; under setting [11], 96 % of control.

Turning to `CCOC(=O)C(=CNc1cc(C)ccn1)C(=O)OCC`, the T/C by setting is: under setting [7], 104 % of control; under setting [14], 95 % of control; under setting [16], 95 % of control; under setting [15], 100 % of control; under setting [17], 100 % of control.

Regarding `O=C(O)C1C2C=CC(O2)C1C(=O)Nn1cccc1` (stereo not drawn), the T/C by setting is: (dose: 50.0 mg/kg/injection, schedule: Q01DX009 (ip), vehicle: Klucel (hydroxypropylcellulose) (HPC)) 99 % of control; (dose: 100.0 mg/kg/injection, schedule: Q01DX009 (ip), vehicle: Klucel (hydroxypropylcellulose) (HPC)) 94 % of control; (dose: 200.0 mg/kg/injection, schedule: Q01DX009 (ip), vehicle: Klucel (hydroxypropylcellulose) (HPC)) 95 % of control.
